Test results: publication PMC10231839, “A glycan receptor kinase facilitates intracellular accommodation of arbuscular mycorrhiza and symbiotic rhizobia in the legume Lotus japonicus” (PLOS Biology, 2023)

Legend:
[1] = target: T1, EPR3a intracellular kinase domain (Lotus japonicus, UniProt Z9OTA2OEF3); assay: autophosphorylation, SDS-PAGE with Pro-Q Diamond stain; type: biochemical; settings: 20 μM ATP, 10 mM MgCl2, pH 8.0, 1 h
T1 construct: intracellular kinase domain residues 255-615; E. coli Rosetta 2; His10-Arg7-SUMO tag cut by 3C protease; lambda-phosphatase dephosphorylated
T1 sequence (Z9OTA2OEF3 255-615): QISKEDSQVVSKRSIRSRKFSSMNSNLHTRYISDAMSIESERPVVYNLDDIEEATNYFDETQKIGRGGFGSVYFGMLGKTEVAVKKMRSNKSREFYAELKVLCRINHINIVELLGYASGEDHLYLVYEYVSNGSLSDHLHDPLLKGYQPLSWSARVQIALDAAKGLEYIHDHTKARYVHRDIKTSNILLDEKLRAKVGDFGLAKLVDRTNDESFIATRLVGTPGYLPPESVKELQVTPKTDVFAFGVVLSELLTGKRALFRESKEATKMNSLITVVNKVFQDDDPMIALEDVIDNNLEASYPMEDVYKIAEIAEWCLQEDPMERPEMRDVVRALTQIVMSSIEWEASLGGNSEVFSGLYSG

[2] = target: T2, EPR3 intracellular kinase domain (Lotus japonicus, UniProt D3KU53); assay: as above; type: biochemical; settings: 20 μM ATP, 10 mM MgCl2, pH 8.0, 1 h
T2 construct: gene LYS3; intracellular kinase domain residues 259-620; E. coli Rosetta 2; His10-Arg7-SUMO tag cut by 3C protease; lambda-phosphatase dephosphorylated
T2 sequence (D3KU53 entry or part of it): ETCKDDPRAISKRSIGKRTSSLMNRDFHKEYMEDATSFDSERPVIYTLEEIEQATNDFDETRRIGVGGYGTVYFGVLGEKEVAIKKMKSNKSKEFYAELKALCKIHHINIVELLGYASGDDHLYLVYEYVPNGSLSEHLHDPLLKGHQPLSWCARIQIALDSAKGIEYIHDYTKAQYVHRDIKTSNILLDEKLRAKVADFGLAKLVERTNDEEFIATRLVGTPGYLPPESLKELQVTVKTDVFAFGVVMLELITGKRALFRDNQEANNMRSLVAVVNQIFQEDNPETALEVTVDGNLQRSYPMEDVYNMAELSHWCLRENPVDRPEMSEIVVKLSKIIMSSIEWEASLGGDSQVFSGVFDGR

EPR3a ectodomain = target: T3, EPR3a ectodomain (Lotus japonicus, UniProt Z9OTA2OEF3); assay: microscale thermophoresis; type: binding; settings: PBS pH 7.4, 500 mM NaCl, 0.01% Tween20, RT, labelled protein
T3 construct: ectodomain residues 25-223; native signal peptide replaced by AcGP67 signal peptide; non-cleavable C-terminal 6xHis; Sf9 insect cells; PNGase F trimmed and BLUE-NHS labelled for MST
T3 sequence (Z9OTA2OEF3 25-223): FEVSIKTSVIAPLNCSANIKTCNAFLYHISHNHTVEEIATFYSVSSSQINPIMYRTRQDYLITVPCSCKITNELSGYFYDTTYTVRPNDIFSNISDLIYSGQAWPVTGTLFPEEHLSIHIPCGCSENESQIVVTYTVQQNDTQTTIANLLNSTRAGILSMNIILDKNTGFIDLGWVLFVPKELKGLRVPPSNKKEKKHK

Molecule | Kd (EPR3a ectodomain) [µM] | also measured
Nc1ncnc2c1ncn2[C@@H]1O[C@H](COP(=O)(O)OP(=O)(O)OP(=O)(O)O)[C@@H](O)[C@H]1O [ATP] | – | autophosphorylation, SDS-PAGE with Pro-Q Diamond stain [1]: EPR3a and EPR3 are able to autophosphorylate; autophosphorylation, SDS-PAGE with Pro-Q Diamond stain [2]: EPR3a and EPR3 are able to autophosphorylate
OC[C@H]1O[C@@H](O[C@@H]2[C@@H](O)[C@H](O[C@@H]3[C@@H](O)[C@H](O[C@@H]4[C@@H](O)[C@H](O[C@H]5[C@H](O)[C@@H](CO)OC(O)[C@@H]5O)O[C@H](CO)[C@H]4O)O[C@H](CO)[C@H]3O)O[C@H](CO)[C@H]2O)[C@H](O)[C@@H](O)[C@@H]1O (some centres unmarked) [laminaripentaose] | ~850 | –
M. loti EPS | 44.4 ± 11.2 | –
R. leguminosarum EPS | 12.5 ± 4 | –
S. indica β-1,3/β-1,6 decasaccharide | – | Kd (EPR3a ectodomain; first (high-affinity) of two binding events): 51 ± 23 µM

Further lines, with some results ahead:

Kd (EPR3a ectodomain) [µM] | Molecule | also measured
~670 | OC[C@H]1O[C@@H](O[C@@H]2[C@@H](O)[C@H](O[C@@H]3[C@@H](O)[C@H](O[C@@H]4[C@@H](O)[C@H](O[C@@H]5[C@@H](O)[C@H](O[C@H]6[C@H](O)[C@@H](CO)OC(O)[C@@H]6O)O[C@H](CO)[C@H]5O)O[C@H](CO)[C@H]4O)O[C@H](CO)[C@H]3O)O[C@H](CO)[C@H]2O)[C@H](O)[C@@H](O)[C@@H]1O (some centres unmarked) [laminarihexaose] | –
937 ± 389 | S. meliloti EPS | –
